Measured values: patent US7666635B2, “Process for the preparation of amides” (priority 1997, dated 2010)
Read-outs that look alike come from different tables or passages of the source.

Key:
[1] = test system: Rhodococcus rhodochrous J1; assay: Substrate specificity of the Rhodococcus strains; type: cell-based
Experimental: (§1) Rhodococcus rhodochrous J1 was cultured for 72 h in the medium described in EP-A 0 307 926. The microorganisms Rhodoccus GF674, GF578, GF270 and GF376 were cultured in the following media at pH 7.0 for up to 96 h:
(§2) The substrate specificity is summarized as relative activity in Table 15.

[2] = test system: NA40 nitrile hydratase (resting NA40 cells); assay: Substrate specificity of resting NA40 cells; type: cell-based, Amycolatopsis NA40
Experimental: (3) For determination of the activity of NA40 with respect to a number of substrates, cells having a dry weight of 0.0388 mg were incubated in the buffer described above. The reaction was started by addition of the appropriate substrate and incubated at 20° C. with shaking for 10 min. The reaction was stopped by addition of 0.2 ml of 2 N HCl and the reaction mixture was briefly centrifuged. The supernatant was analysed by means of HPLC or gas chromatography.

[3] = test system: purified nitrile hydratase from NA40; assay: Substrate specificity of the purified nitrile hydratase; type: biochemical, Amycolatopsis NA40; settings: pH 7
[4] = test system: purified nitrile hydratase from NA40; assay: as above; type: biochemical, Amycolatopsis NA40
Experimental: The substrate specificity was determined analogously to Example 2 (1).
1.7 Units of enzyme were added to the reaction mixture (2.0 ml). The reaction mixture contained the respective substrate in 45 mM phosphate buffer (pH 7.0).

Rhodococcus GF376 = assay: Substrate specificity of the Rhodococcus strains; type: cell-based
Experimental: as §1
(§3) Rhodoccus GF674 in a medium comprising yeast extract 1.0 g/l, fructose 5.0 g/l, malt extract 10.0 g/l, acetamide 5.0 g/l, KH2PO4 2.0 g/l, MgSO47H2O 0.5 g/l and CoCl2.6H2O 10.0 mg. Rhodoccus GF578 in a medium containing yeast extract 1.0 g/l, fructose 15.0 g/l, malt extract 10.0 g/l, acetamide 25.0 g/l, KH2PO4 2.0 g/l, MgSO47H2O 0.5 g/l and CoCl2.6H2O 5.0 mg. […] Rhodoccus GF3 76 in a medium containing yeast extract 1.0 g/l, sodium citrate 10.0 g/l, malt extract 15.0 g/l, butyramide 7.5 g/l, KH2PO4 2.0 g/l, MgSO4.7H2O 0.5 g/l and CoCl2.6H2O 15.0 mg.
as §2

Rhodococcus GF674 = assay: Substrate specificity of the Rhodococcus strains; type: cell-based
Experimental: as §1, §3, §2

Rhodococcus GF578 = assay: Substrate specificity of the Rhodococcus strains; type: cell-based
Experimental: as §1, §3, §2

Rhodococcus GF270 = assay: Substrate specificity of the Rhodococcus strains; type: cell-based
Experimental: as §1, §3, §2

Actinomadura spadix C15 = assay: Conversion rates of aliphatic nitriles using the isolated bacteria (enrichment medium); type: cell-based
Experimental: (§4) a) Various soil samples were inoculated with various nitriles or amides as a C and N source in the enrichment medium according to Table 1 and incubated at 37° C. or 45° C. for 7 10 days. The cultures were then transferred to the same medium and again cultured at 37° C. for 7 10 days. The whole process was repeated 3 times. The cultures were then diluted and plated out in order to obtain individual colonies. The plates were incubated at 37° C. for 5 days. The different colonies were then tested for the desired activity.
(§5) […] as a C and N source for Amycolatopsis NE31 (DSMZ 11616) Actinomadura spadix E3733 and Actinomadura spadix E3736, azelanitrile served as a C and N source for Amycolatopsis NA40 (DSMZ 11617) and Actinomadura spadix 45A32, n-octanenitrile served as a C and N source for Actinomadura spadix 4501 and cyanoacetic acid served as a C and N source for Actinomadura spadix C15.
(§6) (1) For determination of the nitrile hydratase activity, a reaction mixture (2 ml) containing 3-cyanopyridine (1.0 M, 1.0 ml), potassium phosphate buffer (pH 7.0, 0.1 M, 0.5 ml) and 0.5 ml of cell suspension were incubated at 20° C. for 30 min with stirring. The reaction was stopped by addition of 0.2 ml of 3 N HCl. After centrifuging briefly, the nicotinamide formed was determined by means of HPLC (Shimadzu SPD 6A system using a C18 column (Develosil ODS-HG-5. […]); eluent: 10 mM KH2PO4/H3PO4 (pH 2.8)/acetonitrile 9:1 (v/v); flow rate: 1 ml/min; the absorption was measured at 230 nm). The specific activity was expressed as µmol of nicotinamide formed/ml/min/OD610 nm.
(§7) The reaction rates of aliphatic nitriles in the enrichment medium (Table 1) with isolated bacteria is summarized in Table 5, the effects of inducers and cofactors in the basal medium (Table 2) is summarized in Table 4 and the activity comparison of Amycolatopsis to Rhodoccus in the basal medium (Table 2) is summarized in Table 6.

[5] = test system: Amycolatopsis NA40 (DSMZ 11617); assay: as above; type: cell-based
Experimental: as §4, §5, §6, §7

[6] = test system: Actinomadura spadix 45A32; assay: as above; type: cell-based
Experimental: as §4, §5, §6, §7

[7] = test system: nitrile hydratase of NA40; assay: Determination of the KM value (Lineweaver-Burk diagram); type: biochemical, Amycolatopsis NA40; settings: substance as substrate; 20 ° C., 45 mM phosphate buffer, pH 7.0
Experimental: The KM value was determined to be 41.7 mM for 3-cyanopyridine and to be 3.7 mM for acrylonitrile by means of the Lineweaver-Burk diagram. […] This is one of the main advantages of NA40.

[8] = test system: Actinomadura spadix E3736; assay: Conversion rates of aliphatic nitriles using the isolated bacteria (enrichment medium); type: cell-based
Experimental: as §4, §5, §6, §7

[9] = test system: Amycolatopsis NE31 (DSMZ 11616); assay: as above; type: cell-based
Experimental: as §4, §5, §6, §7

[10] = test system: Actinomadura spadix E3733; assay: as above; type: cell-based
Experimental: as §4, §5, §6, §7

Rhodoccus GF376 = assay: Tolerance of 3-cyanopyridine on the activity of resting cells; type: cell-based, Rhodococcus GF376; settings: substrate concentration of 10% (w/v), resting cells 15 min at 20° C.
Experimental: (§8) In order to test the tolerance of 3-cyanopyridine, resting cells were incubated for 15 min at 20° C. at concentrations of 3-cyanopyridine between 1 and 10% (w/v) and the cells were then removed by centrifugation. After washing the cells with 0.85% NaCl, the remaining activity was measured.
(§9) The tolerance of 3-cyanopyridine as a substrate was tested at various substrate concentrations.

[11] = test system: Purified enzyme from NA40 (nitrile hydratase); assay: Activity for 3-cyanopyridine, purified enzyme; type: biochemical, Amycolatopsis NA40
Experimental: […] The reaction was stopped by addition of 0.2 ml of 3 N HCl. After centrifuging briefly, the nicotinamide formed was determined by means of HPLC (Shimadzu SPD 6A system using a C18 column (Develosil ODS-HG-5. […]); eluent: 10 mM KH2PO4/H3PO4 (pH 2.8)/acetonitrile 9:1 (v/v); flow rate: 1 ml/min; the absorption was measured at 230 nm). The specific activity was expressed as µmol of nicotinamide formed/ml/min/OD610 nm.
as §7

Rhodoccus GF270 = assay: Tolerance of 3-cyanopyridine on the activity of resting cells; type: cell-based, Rhodococcus GF270; settings: substrate concentration of 4% (w/v), resting cells 15 min at 20° C.
Experimental: as §8, §9

Rhodoccus GF674 = assay: as above; type: cell-based, Rhodococcus GF674; settings: substrate concentration of 4% (w/v), resting cells 15 min at 20° C.
Experimental: as §8, §9

Rhodoccus rhodochrous J1 = assay: as above; type: cell-based, Rhodococcus rhodochrous J1; settings: substrate concentration of 2% (w/v), resting cells 15 min at 20° C.
Experimental: as §8, §9

Rhodoccus GF578 = assay: as above; type: cell-based, Rhodococcus GF578; settings: up to a substrate concentration of 8%, resting cells 15 min at 20° C.
Experimental: as §8, §9

[12] = biological target: T1, Purified enzyme from J1 (nitrile hydratase) (Rhodococcus rhodochrous, UniProt P21219+P21220); assay: Activity for 3-cyanopyridine, purified enzyme; type: biochemical
T1 construct: host or cells: Rhodococcus rhodochrous J1 (native producer)

[13] = test system: Amycolatopsis NA40 (DSMZ 11617); assay: Activity for 3-cyanopyridine, microorganism (comparison in basal medium); type: cell-based
Experimental: as §6, §7

[14] = test system: Rhodococcus rhodochrous J1; assay: as above; type: cell-based
Experimental: as §6, §7

[15] = Rhodococcus rhodochrous J1, 3-cyanopyridine = 100
[16] = resting NA40 cells, 20° C., 10 min, 3-cyanopyridine = 100, substrate concentration per Table 8
[17] = purified enzyme, 3-cyanopyridine = 100
[18] = Rhodococcus GF376, 3-cyanopyridine = 100
[19] = Rhodococcus GF674, 3-cyanopyridine = 100
[20] = Rhodococcus GF578, 3-cyanopyridine = 100
[21] = Rhodococcus GF270, 3-cyanopyridine = 100

T1 sequence (P21219 2-203 limits assumed): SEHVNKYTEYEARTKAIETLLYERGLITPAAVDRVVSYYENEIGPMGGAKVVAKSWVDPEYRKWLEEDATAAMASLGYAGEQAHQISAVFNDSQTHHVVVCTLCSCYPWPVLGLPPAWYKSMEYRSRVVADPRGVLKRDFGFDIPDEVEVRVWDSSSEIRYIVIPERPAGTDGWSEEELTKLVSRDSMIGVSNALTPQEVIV
T1 sequence (P21220 whole entry): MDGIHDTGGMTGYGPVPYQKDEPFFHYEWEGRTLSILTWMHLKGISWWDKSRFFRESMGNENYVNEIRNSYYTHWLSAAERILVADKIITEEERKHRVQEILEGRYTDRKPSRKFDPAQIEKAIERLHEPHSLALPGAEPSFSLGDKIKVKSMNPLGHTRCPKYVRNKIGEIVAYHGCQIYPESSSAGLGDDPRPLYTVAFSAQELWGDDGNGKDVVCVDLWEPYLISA

SMILES: N#Cc1ccc(Cl)cc1 [p-Chlorobenzonitrile]
- relative activity (substrate specificity) [1]: 13%
- Relative activity [2]: 16%
- Total activity [3]: 2.30 µmol/mL/min
- Relative activity, Enzyme reaction [4]: 13%
- relative activity (substrate specificity) (Rhodococcus GF376): 0%
- relative activity (substrate specificity) (Rhodococcus GF674): 0%
- relative activity (substrate specificity) (Rhodococcus GF578): 0%
- relative activity (substrate specificity) (Rhodococcus GF270): 0%

SMILES: N#CCC(=O)O [Cyanoacetic acid]
- Specific activity (Actinomadura spadix C15; strain C15): 3.43 μmol/ml/min/OD
- Total activity (Actinomadura spadix C15; strain C15): 7.01 µmol/mL/min
- Growth (OD610 nm) (Actinomadura spadix C15; strain C15, substrate in enrichment medium): 2.04 OD610 nm

SMILES: N#CCCCCCCCC#N [Azelanitrile]
- Specific activity ([5]; strain NA40): 5.57 μmol/ml/min/OD
- Total activity ([5]; strain NA40): 33.0 µmol/mL/min
- Growth (OD610 nm) ([5]; strain NA40, nitrile as substrate in enrichment medium): 5.92 OD610 nm
- Specific activity ([6]; strain 45A32): 3.23 μmol/ml/min/OD
- Total activity ([6]; strain 45A32): 18.8 µmol/mL/min
- Growth (OD610 nm) ([6]; strain 45A32, nitrile as substrate in enrichment medium): 5.81 OD610 nm

SMILES: C=CC#N [Acrylonitrile]
- relative activity (substrate specificity) [1, 15]: 478%
- Relative activity [2, 16]: 115%
- Km [7]: 3.7 mM
- Relative activity, Enzyme reaction [4, 17]: 94%
- relative activity (substrate specificity) (Rhodococcus GF376; [18]): 257%
- relative activity (substrate specificity) (Rhodococcus GF674; [19]): 147%
- relative activity (substrate specificity) (Rhodococcus GF578; [20]): 101%
- relative activity (substrate specificity) (Rhodococcus GF270; [21]): 192%

SMILES: N#CCCCCC#N [Adiponitrile]
- Specific activity ([8]; strain E3736): 2.21 μmol/ml/min/OD
- Total activity ([8]; strain E3736): 3.00 µmol/mL/min
- Growth (OD610 nm) ([8]; strain E3736, nitrile as substrate in enrichment medium): 1.36 OD610 nm
- Specific activity ([9]; strain NE31): 0.141 μmol/ml/min/OD
- Total activity ([9]; strain NE31): 0.377 µmol/mL/min
- Growth (OD610 nm) ([9]; strain NE31, nitrile as substrate in enrichment medium): 2.68 OD610 nm
- Specific activity ([10]; strain E3733): 0.214 μmol/ml/min/OD
- Total activity ([10]; strain E3733): 0.347 µmol/mL/min
- Growth (OD610 nm) ([10]; strain E3733, nitrile as substrate in enrichment medium): 1.62 OD610 nm

SMILES: N#Cc1cccnc1 [3-Cyanopyridine]
- nitrile hydratase activity decreased by the factor (Rhodoccus GF376): 1.25
- relative activity (substrate specificity) [1, 15]: 100%
- Activity for 3-cyanopyridine [11]: 1110 μmol/min/mg protein
- Relative activity [2, 16]: 100%
- nitrile hydratase activity decreased by the factor (Rhodoccus GF270): 1.17
- nitrile hydratase activity decreased by the factor (Rhodoccus GF674): 1.4
- Km [7]: 41.7 mM
- nitrile hydratase activity decreased by the factor (Rhodoccus rhodochrous J1): 1.4
- nitrile hydratase activity (Rhodoccus GF578): remained nearly constant
- Activity for 3-cyanopyridine [12]: 371 μmol/min/mg protein
- Relative activity, Enzyme reaction [4, 17]: 100%
- Activity for 3-cyanopyridine [13]: 303 µmol/mL/min
- Activity for 3-cyanopyridine [14]: 314
- relative activity (substrate specificity) (Rhodococcus GF376; [18]): 100%
- relative activity (substrate specificity) (Rhodococcus GF674; [19]): 100%
- relative activity (substrate specificity) (Rhodococcus GF578; [20]): 100%
- relative activity (substrate specificity) (Rhodococcus GF270; [21]): 100%
